IC50, Kd and Activity data for 16 compounds are collected here from ChEMBL document CHEMBL4425172, “Chemical synthesis, pharmacological evaluation and in silico analysis of new 2,3,3a,4,5,6-hexahydrocyclopenta[c]pyrazole derivatives as potential anti-mitotic agents” (Bioorg Med Chem Lett, 2016).

Each structure is given as a SMILES string. The source made the active and inactive calls. The calls are words filed in the database; no cut-off is given here.

As a reminder, the IC50 is the concentration that gives 50% inhibition. A word on the Kd: it is the equilibrium constant for the complex coming apart. High values mean weaker binding, low ones tighter binding.

In one experiment the test system is MDA-MB-231. Description: Antiproliferative activity against human MDA-MB-231 cells assessed as reduction in cell viability measured after 72 hrs by MTS assay. It is filed as functional, cell-based. (Formazan colour is commonly taken as a measure of viable cells.)
For the next experiment, the system named is T47D. Put plainly: Antiproliferative activity against human T47D cells assessed as reduction in cell viability measured after 72 hrs by MTS assay. It is filed as functional, cell-based.
The test system of another experiment is A549. Description: Antiproliferative activity against human A549 cells assessed as reduction in cell viability measured after 72 hrs by MTS assay. In kind it is functional, cell-based.
The subject of a further experiment is MDA-MB-468. Put plainly: Antiproliferative activity against human MDA-MB-468 cells assessed as reduction in cell viability measured after 72 hrs by MTS assay. It is filed as functional, cell-based.
A further experiment relates to MCF7. Put plainly: Antiproliferative activity against human MCF7 cells assessed as reduction in cell viability measured after 72 hrs by MTS assay. It is filed as functional, cell-based.
Experiment [1] can be described thus: Binding affinity to goat tubulin by double reciprocal plot analysis. Also on record: species or system Capra hircus.
Experiment [2] is filed under the species Capra hircus. Put plainly: Binding affinity to goat tubulin assessed as increase in tubulin-colchicine fluorescence preincubated for 30 mins followed by colchicine addition measured after 60 mins by tryptophan fluorescence quenching assay.
The species entered for experiment [3] is Capra hircus. Description: Binding affinity to goat tubulin by tryptophan fluorescence quenching assay.
The mark [4] stands for this setting: Homo sapiens, MDA-MB-231, 72 h, read-out: IC50.
Where [5] appears, read: Homo sapiens, T47D, 72 h, read-out: IC50.
Where [6] appears, read: Homo sapiens, A549, 72 h, read-out: IC50.
Setting [7] is: Homo sapiens, MDA-MB-468, 72 h, read-out: IC50.
Setting [8] is: Homo sapiens, MCF7, 72 h, read-out: IC50.

For the compound `Fc1ccc(C2NN=C3CCCC32)cc1` (centres undefined), the IC50 in the experiment on MDA-MB-231 (setting [4]) was found to be 30.9 µM; in the experiment on T47D (setting [5]) it was 37.2 µM; in the experiment on A549 (setting [6]), 30.9 µM; with MDA-MB-468 (setting [7]) it was 14.8 µM; in the experiment on MCF7 (setting [8]), 38 µM.
As for `CC(C)c1ccc(C2C3CCCC3=NN2S(=O)(=O)c2ccc(Cl)cc2)cc1` (centres undefined), the IC50 entry was “Not Active” with MDA-MB-231 (mda-mb-231); “Not Active” with T47D (t47d); “Not Active” with A549 (a549); 15.5 µM with MDA-MB-468 (setting [7]); “Not Active” in the experiment with MCF7 (mcf7).
With `CC(=O)O[C@H]1C(=O)[C@@]2(C)[C@H]([C@H](OC(=O)c3ccccc3)[C@]3(O)C[C@H](OC(=O)[C@H](O)[C@@H](NC(=O)c4ccccc4)c4ccccc4)C(C)=C1C3(C)C)[C@]1(OC(C)=O)CO[C@@H]1C[C@@H]2O` [PACLITAXEL], the half-maximal inhibitory concentration (IC50) with MDA-MB-231 (setting [4]) amounted to 0.1 µM; in the experiment on T47D (setting [5]), 0.2 µM; in the experiment with MDA-MB-468 (setting [7]) it was 0.2 µM; in the experiment with MCF7 (setting [8]), 0.1 µM.
Turning to `COc1ccc(C2C3CCCC3=NN2S(C)(=O)=O)cc1` (centres undefined), the IC50 with MDA-MB-231 (setting [4]) worked out at 8.7 µM; in the experiment with T47D (setting [5]), 0.8 µM; in the experiment with A549 (setting [6]) it was 19.1 µM; with MDA-MB-468 (setting [7]), 1 µM; in the experiment on MCF7 (setting [8]), 15.8 µM. Moreover, in experiment [1], binding was characterised by a dissociation constant (Kd) of 85 µM. Besides, the Activity entry in the experiment filed under Capra hircus [2] is “Dose-dependent effect”.
On to `O=[N+]([O-])c1ccc(S(=O)(=O)N2N=C3CCCC3C2c2ccc(Cl)cc2)cc1` (centres undefined), for which the 50% inhibitory concentration (IC50) in the experiment on MDA-MB-231 (setting [4]) was 42.7 µM; in the experiment on T47D (t47d), “Not Active”; in the experiment with A549 (a549) it was “Not Active”; in the experiment on MDA-MB-468 (setting [7]) it was 43.7 µM; in the experiment with MCF7 (mcf7) it was “Not Active”.
`CS(=O)(=O)N1N=C2CCCC2C1c1ccc(F)cc1` (centres undefined): the IC50 in the experiment with MDA-MB-231 (setting [4]) is 51.3 µM; in the experiment on T47D (t47d), “Not Active”; in the experiment with A549 (setting [6]) it was 81.3 µM; in the experiment with MDA-MB-468 (setting [7]), 70.8 µM; with MCF7 (setting [8]) it was 75.9 µM. The compound further registered an equilibrium dissociation constant (Kd) in experiment [1] of 127 µM. In addition, the Activity entry in the experiment listed under Capra hircus [2] was “Dose-dependent effect”.
Take `CC(C)c1ccc(C2C3CCCC3=NN2S(C)(=O)=O)cc1` (centres undefined): the 50% inhibitory concentration (IC50) result in the experiment on MDA-MB-231 (mda-mb-231) is “Not Active”; with T47D (t47d), “Not Active”; in the experiment on A549 (a549) it was “Not Active”; in the experiment with MDA-MB-468 (setting [7]), 120 µM; with MCF7 (mcf7), “Not Active”.
Turning to `COc1ccc(C2NN=C3CCCC32)cc1` (centres undefined), the IC50 result in the experiment on MDA-MB-231 (mda-mb-231) is “Not Active”; with T47D (t47d), “Not Active”; in the experiment with A549 (setting [6]) it was 44.7 µM; in the experiment with MDA-MB-468 (setting [7]), 20 µM; with MCF7 (setting [8]), 24 µM.
On to `O=S(=O)(c1ccc(Cl)cc1)N1N=C2CCCC2C1c1ccc(F)cc1` (centres undefined), for which the IC50 with MDA-MB-231 (setting [4]) is 9.3 µM; in the experiment on T47D (setting [5]), 89.1 µM; in the experiment with A549 (a549), “Not Active”; in the experiment with MDA-MB-468 (mda-mb-468), “Not Active”; in the experiment on MCF7 (mcf7), “Not Active”.
`CC(C)c1ccc(C2C3CCCC3=NN2S(=O)(=O)c2ccc([N+](=O)[O-])cc2)cc1` (centres undefined): the IC50 result in the experiment on MDA-MB-231 (mda-mb-231) was “Not Active”; with T47D (t47d), “Not Active”; in the experiment on A549 (a549) it was “Not Active”; in the experiment on MDA-MB-468 (setting [7]), 28.2 µM; with MCF7 (mcf7) it was “Not Active”.
In the case of `CC(C)c1ccc(C2NN=C3CCCC32)cc1` (centres undefined), the IC50 is 144 µM in the experiment on MDA-MB-231 (setting [4]); 129 µM in the experiment with T47D (setting [5]); “Not Active” with A549 (a549); 186 µM with MDA-MB-468 (setting [7]); “Not Active” with MCF7 (mcf7).
Regarding `Clc1ccc(C2NN=C3CCCC32)cc1` (centres undefined), the 50% inhibitory concentration (IC50) with MDA-MB-231 (setting [4]) worked out at 25.1 µM; in the experiment with T47D (setting [5]), 29.5 µM; with A549 (setting [6]), 47.9 µM; with MDA-MB-468 (setting [7]), 10.2 µM; in the experiment on MCF7 (setting [8]), 51.3 µM.
Consider `COc1ccc(C2C3CCCC3=NN2S(=O)(=O)c2ccc(C)cc2)cc1` (centres undefined), for which the IC50 result was “Not Active” in the experiment with MDA-MB-231 (mda-mb-231); “Not Active” with T47D (t47d); “Not Active” with A549 (a549); “Not Active” in the experiment on MDA-MB-468 (mda-mb-468); 178 µM in the experiment on MCF7 (setting [8]).
Consider `Cc1ccc(S(=O)(=O)N2N=C3CCCC3C2c2ccc(F)cc2)cc1` (centres undefined), for which the IC50 worked out at 1.1 µM in the experiment with MDA-MB-231 (setting [4]); 3.3 µM in the experiment with T47D (setting [5]); 5.8 µM in the experiment on A549 (setting [6]); 3.8 µM with MDA-MB-468 (setting [7]); 50.1 µM in the experiment with MCF7 (setting [8]). The outcome in the experiment filed under Capra hircus [3] was Active.
Turning to `COc1ccc(C2C3CCCC3=NN2S(=O)(=O)c2ccc([N+](=O)[O-])cc2)cc1` (centres undefined), the IC50 result in the experiment with MDA-MB-231 (mda-mb-231) is “Not Active”; with T47D (t47d) it was “Not Active”; in the experiment on A549 (a549) it was “Not Active”; in the experiment with MDA-MB-468 (mda-mb-468), “Not Active”; in the experiment with MCF7 (setting [8]), 151 µM.
Consider `Cc1ccc(S(=O)(=O)N2N=C3CCCC3C2c2ccc(C(C)C)cc2)cc1` (centres undefined), for which the concentration for half-maximal inhibition (IC50) with MDA-MB-231 (setting [4]) was 15.5 µM; in the experiment on T47D (setting [5]) it was 40.7 µM; in the experiment with A549 (a549), “Not Active”; with MDA-MB-468 (setting [7]), 7.9 µM; in the experiment with MCF7 (mcf7), “Not Active”.
